The values that follow come from ChEMBL document CHEMBL4028808, “Design and synthesis of selective CDK8/19 dual inhibitors: Discovery of 4,5-dihydrothieno[3',4':3,4]benzo[1,2-d]isothiazole derivatives” (Bioorg Med Chem, 2017).

Activity calls are given as the source filed them. The calls are words filed in the database; no cut-off is given here.

Series [1] has as its target T1, Cyclin-dependent kinase 8 (Homo sapiens, UniProt P49336). Nature of the series: Inhibition of CDK8 induced beta-catenin transcriptional activity in human HCT116 cells by luciferase reporter gene assay. The class given is cell-based.
Series [2] deals with T2, CDK8/Cyclin C (Homo sapiens, UniProt P49336). The series can be described thus: Inhibition of full length recombinant human His-tagged CDK8/Cyclin C expressed in baculovirus expression system by LanthaScreen assay. (Time-resolved FRET reads energy transfer from a long-lived donor to a nearby acceptor.)
T2 sequence (P49336 whole entry): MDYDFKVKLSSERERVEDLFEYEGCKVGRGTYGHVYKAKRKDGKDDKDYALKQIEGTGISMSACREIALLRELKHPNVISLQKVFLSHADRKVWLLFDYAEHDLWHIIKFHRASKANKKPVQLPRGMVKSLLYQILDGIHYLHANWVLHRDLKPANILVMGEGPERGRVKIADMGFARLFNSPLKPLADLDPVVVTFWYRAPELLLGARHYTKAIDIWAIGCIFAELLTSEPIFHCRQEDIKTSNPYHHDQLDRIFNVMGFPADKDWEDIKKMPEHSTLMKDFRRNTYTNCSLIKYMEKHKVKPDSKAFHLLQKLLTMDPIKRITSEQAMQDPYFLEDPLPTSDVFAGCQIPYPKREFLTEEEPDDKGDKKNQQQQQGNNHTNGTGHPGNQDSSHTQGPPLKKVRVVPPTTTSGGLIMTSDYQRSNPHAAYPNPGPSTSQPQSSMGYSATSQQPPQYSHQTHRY
T2 sequence (P24863 whole entry, further chain): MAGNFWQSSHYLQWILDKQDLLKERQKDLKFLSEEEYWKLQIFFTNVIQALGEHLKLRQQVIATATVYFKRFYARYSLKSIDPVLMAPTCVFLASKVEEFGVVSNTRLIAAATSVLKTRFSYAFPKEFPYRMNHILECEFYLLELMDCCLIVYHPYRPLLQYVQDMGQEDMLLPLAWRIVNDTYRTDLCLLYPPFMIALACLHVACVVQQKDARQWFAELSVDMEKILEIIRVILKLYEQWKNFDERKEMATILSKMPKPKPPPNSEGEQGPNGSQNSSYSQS
Series [3] has as its target T1, Cyclin-dependent kinase 8. The series can be described thus: Inhibition of CDK8 (unknown origin) at 1 uM by ADP-Glo assay.
Series [4] deals with T1, Cyclin-dependent kinase 8. The series can be described thus: Inhibition of CDK8 in human A549 cells by mass spectrometric method. The class given is cell-based.
Series [5] has as its target Serine/threonine-protein kinase Chk1 (Homo sapiens) (UniProt O14757). The series can be described thus: Inhibition of CHK1 (unknown origin) at <1 uM using CHKtide as substrate preincubated for 5 mins followed by substrate addition measured after 10 mins in presence of [gamma33P]ATP by scintillation counter method.
Series [6] has as its target Cyclin-C/Cyclin-dependent kinase 19 (Homo sapiens, UniProt Q9BWU1). Nature of the series: Inhibition of kinase tracer-236 binding to GST-tagged CDK19/CyclinC (unknown origin) after 60 mins by TR-FRET assay. The class given is protein-complex assay.
Series [7] deals with CDC7/DBF4 (Cell division cycle 7-related protein kinase/Activator of S phase kinase) (Homo sapiens) (UniProt Q9UBU7+O00311). The series can be described thus: Inhibition of CDC7/Dbf4 (unknown origin) at 1 uM using His-tagged MCM2 as substrate preincubated for 5 mins followed by substrate addition measured after 60 mins in presence of [gamma33P]ATP by scintillation counter method relative to control. The class given is protein-complex assay.
Sequence of CDC7/DBF4 (Cell division cycle 7-related protein kinase/Activator of S phase kinase) (Homo sapiens) (O00311 whole entry, looked up): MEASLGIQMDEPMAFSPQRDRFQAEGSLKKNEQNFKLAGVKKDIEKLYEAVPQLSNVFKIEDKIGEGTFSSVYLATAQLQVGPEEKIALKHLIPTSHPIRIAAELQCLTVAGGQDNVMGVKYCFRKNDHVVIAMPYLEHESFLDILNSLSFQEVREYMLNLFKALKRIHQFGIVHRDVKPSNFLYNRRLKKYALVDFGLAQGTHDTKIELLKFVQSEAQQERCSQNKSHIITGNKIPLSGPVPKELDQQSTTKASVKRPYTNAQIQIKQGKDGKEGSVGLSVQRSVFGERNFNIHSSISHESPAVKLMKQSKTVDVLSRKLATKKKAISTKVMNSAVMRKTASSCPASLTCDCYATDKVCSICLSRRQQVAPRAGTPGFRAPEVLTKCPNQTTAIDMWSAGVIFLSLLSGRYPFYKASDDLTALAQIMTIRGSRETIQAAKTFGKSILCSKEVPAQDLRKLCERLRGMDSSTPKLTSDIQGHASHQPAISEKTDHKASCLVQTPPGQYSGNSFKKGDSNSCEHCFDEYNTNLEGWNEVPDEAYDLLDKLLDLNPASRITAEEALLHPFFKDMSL
Sequence of CDC7/DBF4 (Cell division cycle 7-related protein kinase/Activator of S phase kinase) (Homo sapiens) (Q9UBU7 whole entry, looked up): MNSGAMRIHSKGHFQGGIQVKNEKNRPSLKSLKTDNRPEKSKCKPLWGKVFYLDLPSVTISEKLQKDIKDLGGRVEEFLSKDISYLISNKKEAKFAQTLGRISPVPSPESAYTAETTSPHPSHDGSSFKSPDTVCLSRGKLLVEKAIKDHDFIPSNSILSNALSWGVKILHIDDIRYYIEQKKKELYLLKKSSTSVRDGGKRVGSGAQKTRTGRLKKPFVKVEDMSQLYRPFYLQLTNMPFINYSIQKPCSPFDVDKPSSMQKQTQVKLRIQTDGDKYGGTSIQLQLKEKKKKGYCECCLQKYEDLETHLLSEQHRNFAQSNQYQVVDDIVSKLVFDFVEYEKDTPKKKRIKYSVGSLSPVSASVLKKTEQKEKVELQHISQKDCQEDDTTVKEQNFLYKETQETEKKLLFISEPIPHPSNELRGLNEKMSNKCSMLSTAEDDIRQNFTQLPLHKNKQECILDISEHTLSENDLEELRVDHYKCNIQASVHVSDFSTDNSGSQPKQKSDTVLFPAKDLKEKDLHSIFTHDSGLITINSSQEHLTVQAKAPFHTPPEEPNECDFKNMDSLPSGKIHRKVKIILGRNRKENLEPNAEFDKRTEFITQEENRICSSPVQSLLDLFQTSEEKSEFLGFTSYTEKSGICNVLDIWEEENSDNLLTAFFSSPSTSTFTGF

The target of series [8] is RAC-alpha serine/threonine-protein kinase (Homo sapiens) (UniProt P31749). The series can be described thus: Inhibition of Akt1 (unknown origin) at <1 uM using AKT1 substrate pretreated for 5 mins followed by substrate addition after 20 mins in presence of [gamma33P]ATP by scintillation counter method.
Series [9] can be described thus: Intrinsic clearance in human liver microsomes at 1 umol/l after 15 to 30 mins in presence of NADPH by LC-MS/MS analysis. The class given is ADME, microsome. Conditions: read-out: CLH. In general terms: Microsomes from liver hold many membrane-bound enzymes, among them those of drug oxidation.
Series [10] concerns the target High affinity nerve growth factor receptor (Homo sapiens) (UniProt P04629). The series can be described thus: Inhibition of TrkA (unknown origin) at <1 uM.
For series [11], the target named is Rho-associated protein kinase 1 (Homo sapiens) (UniProt Q13464). The series can be described thus: Inhibition of ROCK1 (unknown origin) at 1 uM using long S6 peptide as substrate pretreated for 5 mins followed by substrate addition measured after 10 mins in presence of [gamma33P]ATP by scintillation counting method relative to control.
For series [12], the target named is Tyrosine-protein kinase JAK1 (Homo sapiens) (UniProt P23458). Nature of the series: Inhibition of JAK1 (unknown origin) at <1 uM using biotinylated poly[Glu:Tyr] (4:1) as substrate pretreated for 5 mins followed by substrate addition measured after 10 mins by Alphascreen assay. For orientation: In Alpha technology, singlet oxygen from a donor bead excites a nearby acceptor bead.

The target in series [13] is Casein kinase I isoform delta (Homo sapiens) (UniProt P48730). Nature of the series: Inhibition of CK1delta (unknown origin) at 1 uM using CK1tide as substrate preincubated for 5 mins followed by substrate addition measured after 20 mins in presence of [gamma33P]ATP by scintillation counter method relative to control.
Series [14] addresses Mitogen-activated protein kinase kinase kinase 5 (Homo sapiens) (UniProt Q99683). The series can be described thus: Inhibition of ASK1 (unknown origin) at 1 uM using MBP as substrate preincubated for 5 mins followed by substrate addition measured after 60 mins in presence of [gamma33P]ATP by scintillation counter method relative to control.
For series [15], the target named is Aurora kinase B (Homo sapiens) (UniProt Q96GD4). The series can be described thus: Inhibition of Aurora B (unknown origin) at <1 uM using aurora peptide as substrate preincubated for 5 mins followed by substrate addition measured after 60 mins in presence of [gamma33P]ATP by scintillation counter method.
Sequence of Aurora kinase B (Homo sapiens) (Q96GD4 whole entry): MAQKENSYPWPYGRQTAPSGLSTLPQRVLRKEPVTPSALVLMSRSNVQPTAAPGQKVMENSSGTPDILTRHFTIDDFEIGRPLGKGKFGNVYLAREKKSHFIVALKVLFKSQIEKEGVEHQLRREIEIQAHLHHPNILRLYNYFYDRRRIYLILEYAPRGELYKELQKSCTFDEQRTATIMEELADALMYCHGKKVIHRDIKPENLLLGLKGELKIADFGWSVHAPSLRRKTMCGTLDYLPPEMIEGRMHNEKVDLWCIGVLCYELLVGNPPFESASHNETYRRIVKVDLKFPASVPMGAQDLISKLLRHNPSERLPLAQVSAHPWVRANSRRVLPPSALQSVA
For series [16], the target named is Focal adhesion kinase 1 (Homo sapiens) (UniProt Q05397). The series can be described thus: Inhibition of FAK (unknown origin) at <1 uM using biotinylated poly[Glu:Tyr] (4:1) as substrate pretreated for 5 mins followed by substrate addition measured after 20 mins by Alphascreen assay.
Sequence of Focal adhesion kinase 1 (Homo sapiens) (Q05397 2-1052 limits assumed): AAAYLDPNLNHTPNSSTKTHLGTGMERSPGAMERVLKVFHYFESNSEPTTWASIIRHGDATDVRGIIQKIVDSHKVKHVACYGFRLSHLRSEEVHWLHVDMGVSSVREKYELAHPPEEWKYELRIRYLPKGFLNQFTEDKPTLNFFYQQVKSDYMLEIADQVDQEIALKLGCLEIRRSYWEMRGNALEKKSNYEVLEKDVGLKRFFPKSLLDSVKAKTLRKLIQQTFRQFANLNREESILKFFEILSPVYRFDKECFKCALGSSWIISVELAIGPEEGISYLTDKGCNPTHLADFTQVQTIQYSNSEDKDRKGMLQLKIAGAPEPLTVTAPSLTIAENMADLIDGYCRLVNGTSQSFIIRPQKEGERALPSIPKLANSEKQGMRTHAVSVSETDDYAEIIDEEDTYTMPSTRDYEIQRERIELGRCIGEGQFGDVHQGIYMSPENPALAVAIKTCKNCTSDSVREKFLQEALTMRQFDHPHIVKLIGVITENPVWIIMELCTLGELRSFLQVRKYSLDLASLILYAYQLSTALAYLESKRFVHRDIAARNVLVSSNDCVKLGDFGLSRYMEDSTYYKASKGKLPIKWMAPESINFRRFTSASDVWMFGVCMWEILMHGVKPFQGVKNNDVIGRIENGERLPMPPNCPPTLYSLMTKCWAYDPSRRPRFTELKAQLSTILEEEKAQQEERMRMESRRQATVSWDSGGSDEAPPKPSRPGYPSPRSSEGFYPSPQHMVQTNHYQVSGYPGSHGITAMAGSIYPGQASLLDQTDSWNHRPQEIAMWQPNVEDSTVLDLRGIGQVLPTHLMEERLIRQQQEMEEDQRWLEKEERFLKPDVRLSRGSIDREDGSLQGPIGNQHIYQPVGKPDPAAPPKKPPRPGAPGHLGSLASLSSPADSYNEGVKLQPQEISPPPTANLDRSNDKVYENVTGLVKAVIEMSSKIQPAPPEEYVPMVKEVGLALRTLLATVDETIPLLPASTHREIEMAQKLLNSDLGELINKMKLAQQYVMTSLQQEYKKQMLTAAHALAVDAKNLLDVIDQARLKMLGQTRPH
Series [17] addresses T2, CDK8/Cyclin C. Nature of the series: Inhibition of kinase tracer-236 binding to GST-tagged CDK8/CyclinC (unknown origin) after 60 mins by TR-FRET assay. The class given is protein-complex assay.
Series [18] addresses T3, Cyclin-dependent kinase 9 (Homo sapiens, UniProt P50750). Nature of the series: Inhibition of CDK9 (unknown origin).
Series [19] has as its target Serine/threonine-protein kinase PLK1 (Homo sapiens) (UniProt P53350). The series can be described thus: Inhibition of PLK1 (unknown origin) at 1 uM using alpha-casein as substrate preincubated for 5 mins followed by substrate addition measured after 60 mins in presence of [gamma33P]ATP by scintillation counter method relative to control.
The next series is filed under the species Homo sapiens. The series can be described thus: Inhibition of PKA (unknown origin) at 1 uM using PKA peptide as substrate preincubated for 5 mins followed by substrate addition measured after 10 mins in presence of [gamma33P]ATP by scintillation counter method relative to control.
Series [20] deals with Protein kinase C theta type (Homo sapiens) (UniProt Q04759). The series can be described thus: Inhibition of PKCtheta (unknown origin) at 1 uM using MBP as substrate preincubated for 5 mins followed by substrate addition measured after 60 mins in presence of [gamma33P]ATP by scintillation counter method relative to control.
Series [21] has as its target Dual specificity mitogen-activated protein kinase kinase 1 (Homo sapiens) (UniProt Q02750). Nature of the series: Inhibition of MEK1 (unknown origin) at <1 uM using GST-ERK1 as substrate preincubated for 5 mins followed by substrate addition measured after 20 mins in presence of [gamma33P]ATP by scintillation counter method.
Series [22] concerns the target Vascular endothelial growth factor receptor 2 (Homo sapiens) (UniProt P35968). Nature of the series: Inhibition of VEGFR2 (unknown origin) at <1 uM using biotinylated poly[Glu:Tyr] (4:1) as substrate pretreated for 5 mins followed by substrate addition measured after 10 mins by Alphascreen assay.
For series [23], the target named is Ephrin type-A receptor 5 (Homo sapiens) (UniProt P54756). The series can be described thus: Inhibition of EphA5 (unknown origin) at <1 uM using biotinylated poly[Glu:Tyr] (4:1) as substrate pretreated for 5 mins followed by substrate addition measured after 10 mins by Alphascreen assay.
Sequence of Ephrin type-A receptor 5 (Homo sapiens) (P54756 whole entry): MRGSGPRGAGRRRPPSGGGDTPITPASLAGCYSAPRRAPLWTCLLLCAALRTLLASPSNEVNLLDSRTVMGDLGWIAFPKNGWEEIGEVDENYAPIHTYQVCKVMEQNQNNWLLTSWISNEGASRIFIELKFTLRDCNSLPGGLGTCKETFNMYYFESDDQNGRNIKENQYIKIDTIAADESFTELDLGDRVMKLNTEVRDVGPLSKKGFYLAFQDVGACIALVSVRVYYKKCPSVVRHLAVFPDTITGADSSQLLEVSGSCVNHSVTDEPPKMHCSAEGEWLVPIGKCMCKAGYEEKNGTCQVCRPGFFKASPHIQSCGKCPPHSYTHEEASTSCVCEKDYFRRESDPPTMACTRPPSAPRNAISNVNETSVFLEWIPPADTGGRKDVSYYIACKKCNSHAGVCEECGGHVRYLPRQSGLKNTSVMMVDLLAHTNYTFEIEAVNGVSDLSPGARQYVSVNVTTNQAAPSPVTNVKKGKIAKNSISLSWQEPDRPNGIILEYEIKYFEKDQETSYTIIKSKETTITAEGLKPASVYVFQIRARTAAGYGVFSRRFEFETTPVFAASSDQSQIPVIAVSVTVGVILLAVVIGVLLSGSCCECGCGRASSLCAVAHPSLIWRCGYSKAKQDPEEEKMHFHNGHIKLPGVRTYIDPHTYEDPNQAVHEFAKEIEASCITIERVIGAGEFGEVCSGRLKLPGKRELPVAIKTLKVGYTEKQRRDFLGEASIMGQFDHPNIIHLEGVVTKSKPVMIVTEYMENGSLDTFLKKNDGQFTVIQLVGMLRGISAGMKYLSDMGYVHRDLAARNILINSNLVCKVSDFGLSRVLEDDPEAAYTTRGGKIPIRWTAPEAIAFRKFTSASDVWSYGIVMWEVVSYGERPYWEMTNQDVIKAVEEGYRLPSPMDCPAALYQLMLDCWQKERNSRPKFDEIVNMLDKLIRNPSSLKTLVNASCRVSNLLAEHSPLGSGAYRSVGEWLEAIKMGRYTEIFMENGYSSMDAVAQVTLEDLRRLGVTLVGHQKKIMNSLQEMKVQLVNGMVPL
The target in series [24] is Cyclin-C/Cyclin-dependent kinase 19 (Homo sapiens) (UniProt Q9BWU1+P24863). Conditions: 1 uM.
Description: Inhibition of kinase tracer-236 binding to GST-tagged CDK19/CyclinC (unknown origin) at 1 uM after 60 mins by TR-FRET assay relative to control
Series [25] deals with Glycogen synthase kinase-3 beta (Homo sapiens) (UniProt P49841). The series can be described thus: Inhibition of GSK3beta (unknown origin) at 1 uM using GSK3 substrate peptide preincubated for 5 mins followed by substrate addition measured after 30 mins in presence of [gamma33P]ATP by scintillation counter method relative to control.
Series [26] addresses MAP kinase-activated protein kinase 2 (Homo sapiens) (UniProt P49137). The series can be described thus: Inhibition of MAPKAPK2 (unknown origin) at <1 uM using KKLNRTLSVA-NH2 as substrate preincubated for 5 mins followed by substrate addition measured after 10 mins in presence of [gamma33P]ATP by scintillation counter method.
The target in series [27] is Hepatocyte growth factor receptor (Homo sapiens) (UniProt P08581). Nature of the series: Inhibition of cMET (unknown origin) at <1 uM.
Series [28] addresses T1, Cyclin-dependent kinase 8. Nature of the series: Inhibition of CDK8 in human SW480 cells assessed as decrease in STAT1 phosphorylation at Ser727 after 2 hrs by Western blot method.
Series [29] addresses T3, Cyclin-dependent kinase 9. The series can be described thus: Inhibition of CDK9 (unknown origin) at 1 uM relative to control.
Series [30] has as its target CDK2/Cyclin A2 (Homo sapiens) (UniProt P24941+P20248). Nature of the series: Inhibition of CDK2/cyclin A (unknown origin) at 1 uM using histone H1 as substrate preincubated for 5 mins followed by substrate addition measured after 20 mins in presence of [gamma33P]ATP by scintillation counter method relative to control. The class given is protein-complex assay.
For series [31], the target named is Mitogen-activated protein kinase 14 (Homo sapiens) (UniProt Q16539). Nature of the series: Inhibition of p38alpha (unknown origin) at <1 uM using MBP as substrate preincubated for 5 mins followed by substrate addition measured after 60 mins in presence of [gamma32P]ATP by scintillation counter method.
Series [32] deals with Mitogen-activated protein kinase 3 (Homo sapiens) (UniProt P27361). Nature of the series: Inhibition of ERK1 (unknown origin) at <1 uM using MBP as substrate preincubated for 5 mins followed by substrate addition measured after 60 mins in presence of [gamma33P]ATP by scintillation counter method.
Series [33] concerns the target Insulin receptor (Homo sapiens) (UniProt P06213). The series can be described thus: Inhibition of IRK (unknown origin) at <1 uM using biotinylated poly[Glu:Tyr] (4:1) as substrate pretreated for 5 mins followed by substrate addition measured after 60 mins by Alphascreen assay.
Series [34] has as its target Phosphatidylinositol 4,5-bisphosphate 3-kinase catalytic subunit alpha isoform (Homo sapiens) (UniProt P42336). Nature of the series: Inhibition of PI3Kalpha (unknown origin) at <1 uM.
Series [35] concerns the target Proto-oncogene tyrosine-protein kinase Src (Homo sapiens) (UniProt P12931). The series can be described thus: Inhibition of SRC (unknown origin) at <1 uM using biotinylated poly[Glu:Tyr] (4:1) as substrate pretreated for 5 mins followed by substrate addition measured after 10 mins by Alphascreen assay.
The target of series [36] is CDK8/Cyclin C (Homo sapiens) (UniProt P49336+P24863). Conditions: 1 uM.
Description: Inhibition of kinase tracer-236 binding to GST-tagged CDK8/CyclinC (unknown origin) at 1 uM after 60 mins by TR-FRET assay relative to control
The next series concerns SET-2. The series can be described thus: Antitumor activity against human SET2 cells implanted in […] assessed as reduction in tumor volume administered intraperitoneally relative to control. The class given is functional. Also on record: scale not given: the % may be the effect or the level left.

T1 sequence (P49336 whole entry): as the sequence (P49336 whole entry) above
T3 sequence (P50750 whole entry): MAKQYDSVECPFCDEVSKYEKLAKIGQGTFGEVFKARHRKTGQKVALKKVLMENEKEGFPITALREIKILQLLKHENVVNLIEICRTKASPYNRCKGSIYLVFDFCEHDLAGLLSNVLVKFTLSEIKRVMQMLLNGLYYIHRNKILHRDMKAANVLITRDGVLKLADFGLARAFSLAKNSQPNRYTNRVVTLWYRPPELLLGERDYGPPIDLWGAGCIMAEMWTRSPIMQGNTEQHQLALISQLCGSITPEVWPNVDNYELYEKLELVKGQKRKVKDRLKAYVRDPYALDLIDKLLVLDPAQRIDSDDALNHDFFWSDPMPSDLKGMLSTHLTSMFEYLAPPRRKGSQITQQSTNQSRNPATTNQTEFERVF

The EC50 is the midpoint of the concentration-response curve. In general, IC50 refers to the concentration that inhibits the measured activity by half. As for `c1cc2cc(c1)-c1cnc3ccc(nn13)NCCCCCO2`, the EC50 in [1] was determined as 337 nM. At CDK8/Cyclin C [2], the IC50 was 31 nM.

The term inhibition denotes the drop in the measured response relative to a control, in per cent. On to `Brc1c(Br)c2c3c(nc(N4CCNCC4)n3CCC2)c1Br`, for which the inhibition in [3] turned out to be 96%.

With `NC(=O)C[C@H]1CCc2sc3ncnc(O[C@H]4CC[C@H](N5CCOCC5)CC4)c3c21`, 22 nM corresponded to half-maximal inhibition in series [4] (IC50).

Regarding `CSc1sc(C(N)=O)c2c1-c1sncc1CC2`, the inhibition result in series [5], in series [8], in [10], in series [12], in series [15] and in series [16] was “inactive” each time. Also, the inhibition entry in series [21], in [22], in series [23], in series [26], in series [27] and in series [31] was “inactive” throughout. Besides, the inhibition entry in series [32], in [33], in series [34] and in series [35] was “inactive” throughout. Moreover, the values for the IC50 (in [6]; on CDK8/Cyclin C [17]; in [18]) were 1.3 to 1.7 nM, 0.65 nM and 4 nM, respectively. The inhibition in series [7] worked out at 91%; in series [11], 81%; in series [13], 94%; in series [14], 60%; in [19], 62%; in the series listed under Homo sapiens, 62%. Further, the inhibition was found to be 77% in series [20]; 97% in series [24]; 64% in series [25]; 105% in [29]; 95% in [30]; 99% in [36]. Besides, the microsomal CLint at 1 µM in [9] is 137 µL/min/mg. The EC50 in series [28] turned out to be 8.9 nM.

For the molecule `CN(C)[C@H]1C[C@@]23CC[C@@]4(O2)C(=CC[C@]2(C)[C@@H](c5ccc6ccncc6c5)CC[C@H]24)C=C3[C@@H](O)[C@@H]1O`, the Activity in the series on SET-2 was 71%.
